Test results: publication PMC9532535 (Acta Pharmaceutica Sinica. B, 2022)

Columns and labels:
[1] = Measurement of critical aggregation concentration; format: physicochemical; conditions: in water, 37 °C overnight, ACQ probe P2 fluorescence
[2] = ref [37]; cited from earlier work
[3] = test system: Caco-2 monolayer; test: Transport across the Caco-2 monolayer; format: in vitro ADME; conditions: Caco-2 monolayer without Raji

Row | Compound | CAC (critical aggregation concentration) [1] [mmol/L] | plasma protein binding [2] | transport of PTX in the Caco-2 monolayer [3]
1 | CCCCCCCCCCCCCCCCCC(=O)[O-].C[N+](C)(C)CCO [Choline stearate] | 0.37 ± 0.02 | – | –
2 | CC(=O)O[C@H]1C(=O)[C@@]2(C)[C@H]([C@H](OC(=O)c3ccccc3)[C@]3(O)C[C@H](OC(=O)[C@H](O)[C@@H](NC(=O)c4ccccc4)c4ccccc4)C(C)=C1C3(C)C)[C@]1(OC(C)=O)CO[C@@H]1C[C@@H]2O [PTX, paclitaxel] | – | greater than 90% | negligible
3 | Choline oleate | 0.19 ± 0.01 | – | –
